Here are results for 18 compounds from patent US20030083336A1, “Phenylpiperazinyl derivatives” (H. Lundbeck A/S, priority 1999, published 2003).

pIC50: −log10 of the molar value. Counter-ions that a name gives are not always drawn.

Series [1] has as its target T1, human cloned dopamine D3 receptors (Homo sapiens, UniProt P35462).
T1 construct: expressed in transfected cells; host or cells: CHO cells
The series is described as follows: Inhibition of the binding of [3H]-Spiperone to human D3 receptors. The settings on record: [3H]Spiperone 0.3 nM; for pIC50: membranes of CHO-cells, read-out: D3-bind. IC50; for inhibition at 0.05 µM: test compound at 50 nM, read-out: D3-bind. % inhibition of binding at 50 nM. The method, then: Inhibition of the Binding of [^3H]-Spiperone to Human D3 Receptors
By this method the inhibition by drugs of the binding [^3H]Spiperone (0.3 nM) to membranes of human cloned dopamine D3 receptors expressed in CHO-cells is determined in vitro. Method modified from R. G. MacKenzie et al. Eur. J. Pharm.-Mol. Pharm. Sec. 1994, 266, 79-85. The results are given in the following Table 1 as IC50-values or as percent inhibition of the binding of ^3H-Spiperone at the concentration of the test compound indicated.

For series [2], the target named is T2, human cloned dopamine D4.2 receptors (Homo sapiens, UniProt P21917, DEL265-296).
T2 construct: expressed in transfected cells; host or cells: CHO cells
T2 sequence (P21917 with tags, fused parts or gaps DEL265-296): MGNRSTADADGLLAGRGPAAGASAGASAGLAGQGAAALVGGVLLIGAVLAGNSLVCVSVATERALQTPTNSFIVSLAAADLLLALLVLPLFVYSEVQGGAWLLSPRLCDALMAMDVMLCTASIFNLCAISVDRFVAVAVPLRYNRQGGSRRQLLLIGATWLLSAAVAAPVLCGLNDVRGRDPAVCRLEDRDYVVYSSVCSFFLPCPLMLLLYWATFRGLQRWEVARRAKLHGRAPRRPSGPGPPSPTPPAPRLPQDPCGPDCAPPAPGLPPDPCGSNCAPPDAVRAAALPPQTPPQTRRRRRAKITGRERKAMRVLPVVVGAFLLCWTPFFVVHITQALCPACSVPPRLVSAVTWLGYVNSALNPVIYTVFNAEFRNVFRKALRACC
Kind of series: Inhibition of the binding of 3H-YM-09151-2 to human dopamine D4 receptors. Conditions: [3H]YM-09151-2 0.06 nM; for pIC50: membranes of CHO-cells, read-out: D4-bind. IC50. Here is the method:
Inhibition of the Binding of ^3H-YM-09151-2 to Human Dopamine D4 Receptors
By this method the inhibition by drugs of the binding of [^3H]YM-09151-2 (0.06 nM) to membranes of human cloned dopamine D4.2 receptors expressed in CHO-cells is determined in vitro. Method modified from NEN Life Science Products, Inc., technical data certificate PC2533-10/96. The results are given in the following Table 1 as IC50-values or as percent inhibition of the binding of ^3H-YM-09151 -2 at the concentration of the test compound indicated.

In a further series the target is T3, D4 receptor (Homo sapiens, UniProt P21917).
T3 sequence (P21917 1-419): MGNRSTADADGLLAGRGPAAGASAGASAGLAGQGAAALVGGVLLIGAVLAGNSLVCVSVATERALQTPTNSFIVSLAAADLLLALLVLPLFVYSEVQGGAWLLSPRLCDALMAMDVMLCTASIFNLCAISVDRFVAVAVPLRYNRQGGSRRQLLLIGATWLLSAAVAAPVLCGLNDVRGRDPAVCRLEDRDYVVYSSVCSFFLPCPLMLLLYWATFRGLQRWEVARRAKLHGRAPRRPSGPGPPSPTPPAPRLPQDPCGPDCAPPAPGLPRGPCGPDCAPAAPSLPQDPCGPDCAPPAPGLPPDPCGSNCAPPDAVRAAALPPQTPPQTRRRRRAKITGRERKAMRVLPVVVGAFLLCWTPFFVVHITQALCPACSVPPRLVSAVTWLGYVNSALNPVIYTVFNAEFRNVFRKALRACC
The settings on record: various in vitro efficacy assays; cited from earlier work.

T1 sequence (P35462 whole entry): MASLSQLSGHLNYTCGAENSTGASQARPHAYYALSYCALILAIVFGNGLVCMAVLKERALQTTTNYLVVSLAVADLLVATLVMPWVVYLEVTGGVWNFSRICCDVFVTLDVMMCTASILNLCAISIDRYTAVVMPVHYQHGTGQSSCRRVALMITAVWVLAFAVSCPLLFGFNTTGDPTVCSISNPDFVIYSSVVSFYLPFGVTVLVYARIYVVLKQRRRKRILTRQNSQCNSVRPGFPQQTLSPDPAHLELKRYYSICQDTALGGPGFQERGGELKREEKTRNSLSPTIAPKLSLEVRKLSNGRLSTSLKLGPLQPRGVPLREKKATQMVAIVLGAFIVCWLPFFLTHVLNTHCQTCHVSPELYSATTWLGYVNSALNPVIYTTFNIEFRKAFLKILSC

As usually defined, the melting point is the temperature, or range, at which the solid turns liquid. `Cc1c(N2CCOCC2)cccc1N1CCN(CCCc2c[nH]c3ccc(F)cc23)CC1` (as salt: HCl) [Compound 1d, 1-[2-methyl-3-(morpholin-4-yl)phenyl]-4-[3-(5-fluoro-1H-indol-3-yl)propyl]piperazine] came in with a melting point of 212 to 215 °C. With `Cc1c(N2CCOCC2)cccc1N1CCN(CCCc2c[nH]c3ccccc23)CC1` (hydrate or solvate) [Compound 1b, 1-[3-(1H-Indol-3-yl)propyl]-4-[2-methyl-3-(morpholin-4-yl)-phenyl]piperazine], the melting point is 112 to 113 °C. One may read the pIC50 as the negative decadic logarithm of the IC50, by convention in mol/L. In turn, `Cc1c(N2CCOCC2)cccc1N1CCN(CCCCc2c[nH]c3ccccc23)CC1` [Compound 1c, 1-[2-methyl-3-(morpholin-4-yl)phenyl]-4-[4-(1H-indol-3-yl)butyl]piperazine] registered a melting point of 111 to 113 °C. In series [1], the pIC50 is 6.89. The pIC50 in series [2] is 7.82. In turn, `Cc1c(N2CCOCC2)cccc1N1CCN(CCCCc2c[nH]c3ccc(F)cc23)CC1` [Compound 1e, 1-[2-metlyl-3-(morpholin-4-yl)phenyl]-4-[4-(5-fluoro-1H-indol-3-yl)butyl]piperazine] registered a melting point of 112 to 114 °C. Moreover, in series [1], the negative-log IC50 (pIC50) was 7.20. The pIC50 in series [2] is 7.85.

Usually inhibition stands for the percentage by which the read-out fell short of the control. For the compound `Cc1c(N2CCN(CCCc3c[nH]c4ccc(F)cc34)CC2)cccc1N1CC(C)OC(C)C1` (centres unmarked) [Compound 2j, 1-[3-(2,6-Dimethylmorpholin-4-yl)-2-methylphenyl]-4-[3-(5-fluoro-1H-indol-3-yl)propyl]piperazine], the inhibition at 0.05 µM in series [1] is 57%. Besides, in series [2], the negative-log IC50 (pIC50) is 7.44. On the same counts, the results for `CCN(CC)c1cccc(Oc2cccc(N3CCN(CCCCc4c[nH]c5ccc(F)cc45)CC3)c2C)c1` [Compound 2k, 1-{3-[3-(Diethylamino)phenoxy]-2-methylphenyl}-4-[4-(5-fluoro-1H-indol-3-yl)butyl]piperazine] are 96% and 7.40.

In the case of `Cc1c(N2CCOCC2)cccc1N1CCN(CCCc2c[nH]c3ccc(Cl)cc23)CC1` [Compound 2l, 1-[3-(Morpholin-4-yl)-2-methylphenyl]-4-[3-(5-chloro-1H-indol-3-yl)propyl]piperazine], the inhibition at 0.05 µM in series [1] came to 40%. The pIC50 in series [2] was 7.52. For `Cc1c(Oc2cccc(N(C)C)c2)cccc1N1CCN(CCCc2c[nH]c3ccc(Cl)cc23)CC1` [Compound 2m], the inhibition at 0.05 µM in series [1] came out at 74%. Besides, in series [2], the pIC50 is 7.24. On to `Cc1c(N2CCN(CCCc3c[nH]c4ccccc34)CC2)cccc1N1CCC[C@H]1CO` [Compound 2o, (S)-1-[3-(2-Hydroxymethylpyrrolidin-1-yl)-2-methylphenyl]-4-[3-(1H-indol-3-yl)propyl]piperazine], for which, in series [1], the inhibition at 0.05 µM came out at 19%. The negative logarithm of the IC50 (pIC50) in series [2] was 7.28. On to `Cc1c(N2CCN(CCCc3c[nH]c4ccc(F)cc34)CC2)cccc1N1CCC[C@H]1CO` [Compound 2p, (S)-1-[3-(2-Hydroxymethylpyrrolidin-1-yl)-2-methylphenyl]-4-[3-(5-fluoro-1H-indol-3-yl)propyl]piperazine], for which the inhibition at 0.05 µM in series [1] came out at 54%; in series [2] (test compound at 50 nM, read-out: D4-bind. % inhibition of binding at 50 nM), 67%. For `Cc1c(Oc2ccc3c(c2)OCO3)cccc1N1CCN(CCCc2c[nH]c3ccc(F)cc23)CC1` [Compound 2q, 1-[3-(1,3-Benzodioxolan-5-yloxy)-2-methylphenyl]-4-[3-(5-fluoro-1H-indol-3-yl)propyl]piperazine], in series [1], the inhibition at 0.05 µM was determined as 61%. In series [2], the pIC50 is 7.37. For `Cc1c(Oc2cccc(N(C)C)c2)cccc1N1CCN(CCCCc2c[nH]c3c(F)cc(F)cc23)CC1` [Compound 2r, 1-{3-[3-(Dimethylamino)phenoxy]-2-methylphenyl}-4-[4-(5,7-difluoro-1H-indol-3-yl)butyl]piperazine], in series [1], the inhibition at 0.05 µM turned out to be 90%. Further, in series [2], the pIC50 is 7.21. Take `Cc1c(N2CCN(CCCc3c[nH]c4c(F)cc(F)cc34)CC2)cccc1N1CCC[C@H]1CO` [Compound 2s, (S)-1-[3-(2-Hydroxymethylpyrrolidin-1-yl)-2-methylphenyl]-4-[3-(5,7-difluoro-1H-indol-3-yl)propyl]piperazine]: the inhibition at 0.05 µM in series [1] worked out at 36%. In addition, the negative logarithm of the IC50 (pIC50) in series [2] is 7.39.

With `Cc1c(Oc2ccc3c(c2)OCO3)cccc1N1CCN(CCCc2c[nH]c3c(F)cc(F)cc23)CC1` [Compound 2t, 1-[3-(1,3-Benzodioxolan-5-yloxy)-2-methylphenyl]-4-[3-(5,7-difluoro-1H-indol-3-yl)propyl]piperazine], the inhibition at 0.05 µM in series [1] worked out at 54%. In series [2], the pIC50 is 7.33. `Cc1c(N2CCN(CCCc3c[nH]c4c(F)cc(F)cc34)CC2)cccc1N1CC(C)OC(C)C1` (centres unmarked) [Compound 2w, 1-[3-(2,6-Dimethylmorpholin-4-yl)-2-methylphenyl]-4-[3-(5,7-difluoro-1H-indol-3-yl)propyl]piperazine]: the inhibition at 0.05 µM in series [1] turned out to be 43%. Besides, the pIC50 in series [2] is 7.47. The like results for `CCN(CC)c1cccc(Oc2cccc(N3CCCN(CCCc4c[nH]c5c(F)cc(F)cc45)CC3)c2C)c1` [Compound 2x, 1-{3-[3-(Diethylamino)phenoxy]-2-methylphenyl}-4-[3-(5,7-difluoro-1H-indol-3-yl)propyl]-1,4-diazepane] were, in that order, 66% and 7.12. Take `Cc1c(Oc2cccc(N(C)C)c2)cccc1N1CCN(CCCc2c[nH]c3c(F)cc(F)cc23)CC1` [Compound 2z, 1-{3-[3-(Dimethylamino)phenoxy]-2-methylphenyl}-4-[3-(5,7-difluoro-1H-indol-3-yl)propyl]piperazine]: the inhibition at 0.05 µM in series [1] was 59%. Moreover, in series [2], the pIC50 was 7.49. Consider `CC(C)Oc1cccnc1N(C)C1CCN(Cc2ccccc2)CC1` [Compound U-101958], for which, at D4 receptor, the “Functional activity at D4 receptor (literature)” value is “partial D4 receptor agonists”.
